BindingDB's records for patent US20230399314 (Wuhan Humanwell Innovative Drug Research and Development …, 2023)

Molecular target: 5'-nucleotidase (Homo sapiens, UniProt P21589)
Experiment: In Vitro Inhibitory Activity of Compound to Recombinant Human CD73 Enzyme
Description: Human-CD73 (Novoprotein; C446) was diluted with Tris-MgCl2 buffer to form a stock solution (3×), which was placed in a 96-well plate according to 20 μL/well to obtain a final concentration of 0.1 μg/mL. The compound was diluted with Tris-MgCl2 buffer to form a stock solution (3×) of an appropriate concentration gradient, the compound solution was added to the above 96-well plate according to 20 μL/well and uniformly mixed with the Human-CD73 solution, and the mixture was incubated at the room temperature for 30 min. Meanwhile, a positive reference group (without the compound) and a negative reference group (without CD73) were set. AMP (Sigma; A1752-5G) was diluted with Tris-MgCl2 buffer to form a stock solution (3×), which was added to the above 96-well plate according to 20 μL/well to obtain a final concentration of 100 μM, and the mixture was uniformly mixed and incubated at 37° C. for 60 min; ATP (Sigma; A7699-1G) was diluted with Tris-MgCl2 buffer to form a stock solution (7×), which was added to the above 96-well plate according to 10 μL/well to obtain a final concentration of 100 μM, and the mixture was uniformly mixed, incubated for 5 min, and tested by using an ATP-GLO kit (Promega; G7573).

Sequence of 5'-nucleotidase (P21589 whole entry): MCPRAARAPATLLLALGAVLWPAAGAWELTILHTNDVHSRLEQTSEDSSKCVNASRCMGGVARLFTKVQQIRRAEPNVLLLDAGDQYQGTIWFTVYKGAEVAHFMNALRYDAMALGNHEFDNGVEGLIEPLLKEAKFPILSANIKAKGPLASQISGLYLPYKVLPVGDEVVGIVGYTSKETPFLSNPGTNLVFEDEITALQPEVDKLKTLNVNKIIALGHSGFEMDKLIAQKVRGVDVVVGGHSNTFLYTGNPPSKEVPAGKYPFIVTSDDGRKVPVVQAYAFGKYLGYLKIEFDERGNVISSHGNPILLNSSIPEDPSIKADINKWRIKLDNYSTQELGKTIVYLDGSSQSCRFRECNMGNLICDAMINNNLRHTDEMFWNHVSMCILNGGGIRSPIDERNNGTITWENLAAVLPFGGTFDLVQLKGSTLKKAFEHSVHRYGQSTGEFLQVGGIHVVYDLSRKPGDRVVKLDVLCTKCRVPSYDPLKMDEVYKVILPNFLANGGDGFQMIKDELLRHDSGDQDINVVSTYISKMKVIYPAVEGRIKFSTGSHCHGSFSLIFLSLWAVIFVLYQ

Going from `O=c1[nH]cc(-c2cc([C@@H]3C[C@H]3C(F)(F)F)c(Cl)nn2)c(=O)[nH]1` (relative stereo) [US20230399314, Compound 2] to `O=c1[nH]cc(-c2cc([C@H]3C[C@@H]3C(F)(F)F)c(Cl)nn2)c(=O)[nH]1` [US20230399314, Compound 3], the IC50 falls from 0.0232 µM to 0.0116 µM (2-fold). The second is the more potent here.

`O=c1[nH]cc(-c2cc([C@H]3C[C@@H]3CF)c(Cl)nn2)c(=O)[nH]1` [US20230399314, Compound 9] gave an IC50 of 0.00459 µM.
